# Key:
# [1] = Viability of H1A2 MZ cells (stably transfected with human CYP1A2) incubated with acetaminophen, trypan blue exclusion; settings: Chinese hamster
# Protocol: (§1) For cell viability experiments 200,000 cells per well were plated on 12 well plates (Beckton-Dickenson, Oxford, UK), using the medium and conditions required by the tumour cell line and allowed to adhere overnight. After this the cells were washed with PBS before the addition of acetaminophen in 0.1 ml PBS (concentrations of 0.1–20 mM acetaminophen were dissolved in PBS by sonication) and then maintained at 37° C. At the appropriate time points, cells were removed from the plates by trypsinisation and collected by centrifugation. Cell viability was measured as ability to exclude trypan blue. Cells were counted at ×100 magnification using an Improved Neubauer haemocytometer; all cell counts are the mean of duplicate determinations of five fields from duplicate experiments.
# (§2) V79 MZ Chinese hamster cells were maintained in Dulbecco-Vogt's modified Eagle's Medium (DMEM) supplemented with 10% foetal calf serum 9FCS), 2 mM L-glutamine, penicillin (100 U/ml and streptomycin (100 μg/ml) (all tissue culture reagents were obtained from Gibco BRL, Paisley, UK). H1A2 MZ cells, which are V79 MZ cells transfected with the human CYP1A2 gene, were also maintained in supplemented DMEM with the addition of geneticin at a concentration of 4 mg/ml. SK-OV-3 cells were grown in DMEM supplemented with 15% FCS and 2 mM L-glutamine, without the addition of antibiotics. RPMI-1640 medium with 10% FCS, 2 mM L-glutamine, penicillin (100 U/ml) and streptomycin ([…]) was required by the HCT116 cells. These cell lines were maintained at 37° C. with 100% humidity and 5% CO2. […] At confluence cells were removed from tissue culture flasks by inubation with trypsin-EDTA for 5 min, diluted 1:3–1:6 in fresh medium and seeded onto fresh flasks. The tumour cell lines were obtained from the European Collection of Cell Cultures.
# H1A2 MZ cells = assay: as above; settings: H1A2 MZ cells; 0.1 mM acetaminophen; 6 h
# Protocol: as §1, §2
# [2] = Viability of V79 MZ cells, alone or co-cultured with H1A2 MZ cells (bystander effect), with acetaminophen, trypan blue exclusion; type: cell-based, Chinese hamster; settings: Chinese hamster; for viability at 4 mM: 4 mM acetaminophen 6 h, then 24 h in culture medium; for viability at 0 h, 4 mM / viability at 6 h, 4 mM: 4 mM acetaminophen in PBS
# Protocol: (§3) Table 1 represents the bystander effect on viability produced by incubating H1A2 MZ cells (stably transfected with human CYP1A2) with various cell-lines in the presence of acetaminophen. Tumour cells or V79 MZ cells (non transfected, parental cells) were co-cultured overnight with various mixtures of H1A2 MZ cells (as indicated in the Table), […] the cells were then washed once with PBS and maintained for either 24 or 48 h in culture medium appropriate to each cell type, as detailed in the Methods section. At 0, 6, 24 or 48 h the cells were washed in PBS and viability of the mixed cell population determined by trypan blue exclusion. The data shown are mean values±SEM of 4 separate determinations. Statistical significance was determined at each time point by comparing viability measurements in the mixed cell populations with both the viability determined at 0 h and in the absence of H1A2 MZ cells in the mixture 2×2 contingency tables using the 2-tailed Chi-squared test with Yate's correction. Viability was determined in a total of 1500 cells at each time point. Levels of significance are indicated as **p<0.001; ***p<0.0001;
# (§4) FIG. 4 represents the bystander effect on viability produced by incubating stably transfected, acetaminophen-activating H1A2 MZ cells with non-transfected parental V79 MZ cells. […] The cells were then washed in PBS and the viability of the mixed cell population determined by trypan blue exclusion. The cultures comprised V79 MZ cells only (open squares), and V79 MZ cells mixed with 5% (solid squares), 10% (open triangles), 25% (open circles) and 50% (solid circles) H1A2 MZ cells. In addition, the viability of H1A2 MZ cells in the presence (crosses) and absence (solid triangles) of acetaminophen is shown.
# V79 MZ cells = assay: as above; type: cell-based, Chinese hamster
# Protocol: as §3, §4
# [3] = Bystander effect on viability of MDA-MB-361 cells co-cultured with H1A2 MZ cells in the presence of acetaminophen, trypan blue exclusion; type: cell-based, human; settings: human; for viability at 4 mM: 4 mM acetaminophen 6 h; for viability at 0 h, 4 mM / viability at 6 h, 4 mM: 4 mM acetaminophen in PBS
# Protocol: (§5) Tumour cells or V79 MZ cells (non transfected, parental cells) were co-cultured overnight with various mixtures of H1A2 MZ cells (as indicated in the Table), washed with PBS and incubated with 4 mM acetaminophen in PBS for 6 h at 37° C. the cells were then washed once with PBS and maintained for either 24 or 48 h in culture medium appropriate to each cell type, as detailed in the Methods section. At 0, 6, 24 or 48 h the cells were washed in PBS and viability of the mixed cell population determined by trypan blue exclusion. The data shown are mean values±SEM of 4 separate determinations. Statistical significance was determined at each time point by comparing viability measurements in the mixed cell populations with both the viability determined at 0 h and in the absence of H1A2 MZ cells in the mixture 2×2 contingency tables using the 2-tailed Chi-squared test with Yate's correction. Viability was determined in a total of 1500 cells at each time point. Levels of significance are indicated as **p<0.001; ***p<0.0001;
# as §1, §2
# MDA-MB-361 cells = assay: as above; type: cell-based, human; settings: for viability at 4000 µM: Homo sapiens
# Protocol: as §5, §1, §2
# [4] = V79 MZ cells + 5% H1A2 MZ cells
# [5] = V79 MZ cells + 10% H1A2 MZ cells
# [6] = V79 MZ cells + 25% H1A2 MZ cells
# [7] = V79 MZ cells + 50% H1A2 MZ cells
# [8] = MDA-MB-361 cells + 10% H1A2 MZ cells
# [9] = MDA-MB-361 cells + 25% H1A2 MZ cells
# [10] = MDA-MB-361 cells + 50% H1A2 MZ cells
smiles,measurement,setting,value
CC(=O)Nc1ccc(O)cc1 [acetaminophen],"viability at 6 h, 1 mM",[1],62%
same,"viability at 6 h, 4 mM",[1],8%
same,cytotoxicity,H1A2 MZ cells,No cytotoxicity
same,viability at 4 mM,[2]; [4],0%
same,"viability at 0 h, 4 mM",[2]; [4],98 ± 1%
same,"viability at 6 h, 4 mM",[2]; [4],52%
same,viability at 4 mM,[2]; [5],0%
same,"viability at 0 h, 4 mM",[2]; [5],98 ± 1%
same,"viability at 6 h, 4 mM",[2]; [5],39 ± 6%
same,viability at 4 mM,[2]; [6],0%
same,"viability at 0 h, 4 mM",[2]; [6],97 ± 2%
same,"viability at 6 h, 4 mM",[2]; [6],20 ± 4%
same,viability at 4 mM,[2]; [7],0%
same,"viability at 0 h, 4 mM",[2]; [7],96 ± 3%
same,"viability at 6 h, 4 mM",[2]; [7],15 ± 7%
same,viability at 4 mM,"[2]; V79 MZ cells, 0% H1A2 MZ cells",98 ± 1%
same,"viability at 0 h, 4 mM","[2]; V79 MZ cells, 0% H1A2 MZ cells",99 ± 1%
same,"viability at 6 h, 4 mM","[2]; V79 MZ cells, 0% H1A2 MZ cells",94 ± 7%
same,Viability (%),"V79 MZ cells; V79 MZ cells + 5% H1A2 MZ cells, 4 mM acetaminophen 6 h, then 24 h in culture medium",zero
same,Viability (%),"V79 MZ cells; V79 MZ cells, 0% H1A2 MZ cells, 4 mM acetaminophen in PBS, 6 h",no decline in cell viability
same,cell viability,"V79 MZ cells; V79 MZ cells, which lack CYP1A2, acetaminophen 0.1–20 mM, 6 h",no loss of cell viability
same,viability at 4 mM,"[3]; MDA-MB-361 cells + 5% H1A2 MZ cells, then 24 h in culture medium",84 ± 7%
same,viability at 4 mM,"[3]; MDA-MB-361 cells + 5% H1A2 MZ cells, then 48 h in culture medium",92 ± 4%
same,viability at 4 mM,"[3]; MDA-MB-361 cells + 10% H1A2 MZ cells, then 24 h in culture medium",81 ± 9%
same,viability at 4 mM,"[3]; MDA-MB-361 cells + 10% H1A2 MZ cells, then 48 h in culture medium",94 ± 7%
same,"viability at 0 h, 4 mM",[3]; [8],96 ± 3%
same,"viability at 6 h, 4 mM",[3]; [8],74 ± 7%
same,viability at 4 mM,"[3]; MDA-MB-361 cells + 25% H1A2 MZ cells, then 24 h in culture medium",78 ± 9%
same,viability at 4 mM,"[3]; MDA-MB-361 cells + 25% H1A2 MZ cells, then 48 h in culture medium",91 ± 6%
same,"viability at 0 h, 4 mM",[3]; [9],97 ± 1%
same,"viability at 6 h, 4 mM",[3]; [9],70 ± 11%
same,viability at 4 mM,"[3]; MDA-MB-361 cells + 50% H1A2 MZ cells, then 48 h in culture medium",0%
same,"viability at 0 h, 4 mM",[3]; [10],98 ± 3%
same,"viability at 6 h, 4 mM",[3]; [10],42 ± 4%
same,viability at 4000 µM,"MDA-MB-361 cells; MDA-MB-361, 0 h, MDA-MB-361 cells + 5% H1A2 MZ cells, 4 mM acetaminophen in PBS, 0 h",98 ± 2%
same,viability at 4000 µM,"MDA-MB-361 cells; MDA-MB-361, 0 h, MDA-MB-361 cells, 0% H1A2 MZ cells, 4 mM acetaminophen in PBS, 0 h",96 ± 1%
same,viability at 4000 µM,"MDA-MB-361 cells; MDA-MB-361, 6 h, MDA-MB-361 cells + 5% H1A2 MZ cells, 4 mM acetaminophen in PBS, 6 h",85 ± 2%
same,viability at 4000 µM,"MDA-MB-361 cells; MDA-MB-361, 6 h, MDA-MB-361 cells, 0% H1A2 MZ cells, 4 mM acetaminophen in PBS, 6 h",98 ± 4%
same,viability at 4000 µM,"MDA-MB-361 cells; MDA-MB-361, MDA-MB-361 cells + 50% H1A2 MZ cells, 4 mM acetaminophen 6 h, then 24 h in culture medium",18%
same,viability at 4000 µM,"MDA-MB-361 cells; MDA-MB-361, MDA-MB-361 cells, 0% H1A2 MZ cells, 4 mM acetaminophen 6 h, then 24 h in culture medium",95 ± 3%
same,viability at 4000 µM,"MDA-MB-361 cells; MDA-MB-361, MDA-MB-361 cells, 0% H1A2 MZ cells, 4 mM acetaminophen 6 h, then 48 h in culture medium",97 ± 1%
same,Viability (%),"MDA-MB-361 cells; MDA-MB-361 cells + 50% H1A2 MZ cells, 4 mM acetaminophen 6 h, then 48 h in culture medium",no viable cells
same,susceptibility to cytotoxicity produced by the activation of acetaminophen,"MDA-MB-361 cells; MDA-MB-361 cells mixed with H1A2 MZ cells, 4 mM acetaminophen, 6 h",highly resistant to cytotoxicity
